Literature values in patent US12357624B2, “Low dose pridopidine for Parkinson's Disease and other diseases associated with parkinsonism” (PRILENIA NEUROTHERAPEUTICS LTD., priority 2019, dated 2025).

Tested on: B104 neuroblastoma cell line
Settings: NE100 1 μM co-incubated with pridopidine; cited from earlier work

CCCN(CCC)CCc1ccc(OC)c(OCCc2ccccc2)c1 [NE100, reference compound]
BDNF secretion: BDNF secretion was inhibited
